Test results: doi:10.1101/2025.08.13.670122v1 (bioRxiv, 2025)
Read-outs that look alike come from different tables or passages of the source.

Target: T1, endogenous AT1R (Rattus norvegicus, UniProt P25095)
T1 construct: expressing low levels of endogenous AT1R; endogenous in cells; host or cells: rat primary VSMC, passages 13-15
T1 sequence (P25095 1-359): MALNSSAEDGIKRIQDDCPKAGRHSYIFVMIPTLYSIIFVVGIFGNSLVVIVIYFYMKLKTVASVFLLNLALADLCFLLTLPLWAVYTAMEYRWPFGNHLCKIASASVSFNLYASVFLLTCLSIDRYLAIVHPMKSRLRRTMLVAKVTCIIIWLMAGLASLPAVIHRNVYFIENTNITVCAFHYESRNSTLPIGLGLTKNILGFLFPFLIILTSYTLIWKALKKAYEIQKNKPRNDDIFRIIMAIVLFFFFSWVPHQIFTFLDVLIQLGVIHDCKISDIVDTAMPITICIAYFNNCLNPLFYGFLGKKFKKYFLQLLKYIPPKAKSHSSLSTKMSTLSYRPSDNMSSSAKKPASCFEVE
Assay: PKC BRET sensor in rat primary VSMC with endogenous AT1R
Assay type: cell-based
Settings: for Emax PKC in VSMCs (% AngII): PKC sensor, for 12 and TRV027 response at 10 μM; for EC50: adenoviral PKC BRET sensor, 1 min stimulation, mean ± SEM of at least three to five independent experiments, read-out: EC50 PKC in VSMCs
From the text: We next assessed the analogs’ ability to engage Gαq by assessing either the PKC or Rho responses in rat primary vascular smooth muscle cell (VSMC) culture, expressing low levels of endogenous AT1R (between 25–50 fmol/mg) (Figure 4, Table 6).
The coding regions of the PKC-c1b sensor, PKN-RBD-RlucII, and rGFPcaax were PCR-amplified and subcloned into the KpnI/XhoI sites of the pENTR3C vector (Invitrogen), respectively. These were then transferred into the adenoviral expression vector pAd/CMV/V5-DEST (Invitrogen), via gateway cloning (pAD-CMV-PKC-c1b, pAD-CMV-PKN-RBD-RLucII, and pAD-CMV-rGFPcaax). Viruses containing the sensor codes were generated following a previously outlined process.[49] […] The following day, cells were transfected with 4 µg of PacI-digested pAd5-CMVsensors using Lipofectamine 2000 (Invitrogen). After 7–10 days post-transfection, mature virus particles were gleaned via the collection of cells and media, which then underwent multiple cycles of freezing and thawing, followed by centrifugation. The harvested virus was amplified by re-infection on 100-mm dishes of confluent HEK293A cells, and harvested 48-72 h later. Viral titers were determined by serial dilution of adenovirus stock and subsequent infection of HEK293A cells in 96-well plates. 36 h after infection, cells were stained using an anti-hexon antibody (ab8249; Abcam), and hexon-expressing cells were tallied via fluorescence microscopy. The virus was then stored at −80°C. After this, rat VSMCs (between the 13th to 15th passages) were seeded at a density of 20,000 cells in each well of white 96-well plates 24 h before transduction with the viral vector. The cells were then transduced with the PKC sensor-adenovirus (3 μL per well) or Rho sensor (1 μL each per well of PKN-RBD-RLucII-adnovirus and rGFP-caax adenovirus). After 24 h, the medium was replaced. 48 h post-viral transduction, the cells were thoroughly washed with Tyrode’s buffer. Finally, BRET assays were carried out as detailed below.
On the day of the experiment, each well was washed with 80 µL of Tyrode’s buffer (140 mM NaCl, 2.7 mM KCl, 1 mM CaCl2, 12 mM NaHCO3, 5.6 mM D-glucose, 0.5 mM MgCl2, 0.37 mM NaH2PO4, 25 mM Hepes (pH 7.4)). This was followed by incubation for 1 h in Tyrode’s buffer at room temperature. For the Gαq, β-arrestin-2, and PKC biosensors used in HEK293 cells, coelenterazine 400A (at a final concentration of 5 μM) was added 10 min before stimulation. Cells were then stimulated with increasing doses of the indicated ligand, and BRET signals were measured using a Tristar2 (Berthold) microplate reader 10 min later. For the PKC and Rho biosensors in VSMCs, and the Rho biosensor in ΔG12/13 cells, cells were similarly stimulated with ligands for 1 min, 1 min 30 s, and 3 min, respectively, before BRET measurement. […] BRET signals were then measured using a Synergy2 (BioTek) microplate reader. The applied filter set was 410/80 nm and 515/30 nm, designed to detect the light emissions of RlucII (Renilla luciferase) (donor) and rGFP (acceptor), respectively.

Emax PKC in VSMCs (% AngII) | EC50 (SEM) [nM] | EC50 [nM] | SMILES
104 | 79.8 ± 17.7 | – | CC[C@H](C)[C@H](NC(=O)[C@H](Cc1ccc(O)cc1)NC(=O)[C@@H](NC(=O)[C@H](CCCNC(=N)N)NC(=O)[C@@H](N)CC(=O)O)C(C)C)C(=O)N[C@@H](Cc1c[nH]cn1)C(=O)N1CCC[C@H]1C(=O)N[C@@H](Cc1ccc(OC)cc1)C(=O)O [compound 11]
13 | – | > 10000 | CC[C@H](C)[C@H](NC(=O)[C@H](Cc1ccc(O)cc1)NC(=O)[C@@H](NC(=O)[C@H](CCCNC(=N)N)NC(=O)[C@@H](N)CC(=O)O)C(C)C)C(=O)N[C@@H](Cc1c[nH]cn1)C(=O)N1CCC[C@H]1C(=O)N[C@@H](Cc1ccc(OCc2ccccc2)cc1)C(=O)O [compound 12]
